Measurements: patent publication US20240308988A1, “Method For Controlling Diamide Resistant Pests and Compounds Therefor” (priority 2021, published 2024)

system: Resistant Plutella xylostella R1 (multi-resistant larvae having the G4946E resistance mutation); assay: Resistant Plutella xylostella R1 (Diamond back moth) larvicide L3, feeding/contact, sprayed Chinese cabbage leaves; assay type: in vivo; settings: Plutella xylostella, 96 h, read-out: control of the resistant strain of Plutella xylostella R1
Protocol: Resistant Plutella xylostella R1 (Diamond back moth) larvicide L3, feeding/contact Chinese cabbage plants were sprayed with diluted test solutions in an application chamber. Cut off leaves were placed into petri dishes with wetted filter paper and infested 1 day after application with 10 L3 multi-resistant Plutella xylostella larvae having the G4946E resistance mutation.
Samples were assessed 4 days after infestation for mortality and growth regulation.
Chlorantraniliprole was used as standard and a resistance factor of 146 was obtained for this strain.
Plutella xylostella resistant strain R1 originally collected from Taiwan in 2012 that carries the RyR mutation G4946E conferring resistance to diamides. The strain is reared on cabbage plants (Brassica aleracea) and selected approximately every two weeks with chlorantraniliprole.

SMILES | pest or weed control at 50 µg/mL [%]
Cc1cc(Cl)cc(C(N)=O)c1NC(=O)c1cc(Cn2nnc(C3CC3)n2)nn1-c1ncccc1Cl [Compound P2, N-(2-carbamoyl-4-chloro-6-methyl-phenyl)-2-(3-chloro-2-pyridyl)-5-[(5-cyclopropyltetrazol-2-yl)methyl]pyrazole-3-carboxamide] | ≥ 80
Cc1cc(Cl)cc(C(N)=O)c1NC(=O)c1cc(Cn2nnc(-c3ccc(C(F)(F)F)cc3)n2)nn1-c1ncccc1Cl [Compound P6, N-(2-carbamoyl-4-chloro-6-methyl-phenyl)-2-(3-chloro-2-pyridyl)-5-[[5-[4-(trifluoromethyl)phenyl]tetrazol-2-yl]methyl]pyrazole-3-carboxamide] | ≥ 80
Cc1cc(Cl)cc(C(N)=O)c1NC(=O)c1cc(OCC(F)(F)C(F)(F)F)nn1-c1ncccc1Cl [Compound P8, N-(2-carbamoyl-4-chloro-6-methyl-phenyl)-2-(3-chloro-2-pyridyl)-5-(2,2,3,3,3-pentafluoropropoxy)pyrazole-3-carboxamide] | ≥ 80
NC(=O)c1cc(Br)cc(Cl)c1NC(=O)c1cc(Cn2nnc(-c3ccc(C(F)(F)F)cc3)n2)nn1-c1ncccc1Cl [Compound P44, N-(4-bromo-2-carbamoyl-6-chloro-phenyl)-2-(3-chloro-2-pyridyl)-5-[[5-[4-(trifluoromethyl)phenyl]tetrazol-2-yl]methyl]pyrazole-3-carboxamide] | ≥ 80
Cc1cc(Cl)cc(C(N)=O)c1NC(=O)c1cc(C(F)F)nn1-c1ncccc1Cl [Compound P22, N-(2-carbamoyl-4-chloro-6-methyl-phenyl)-2-(3-chloro-2-pyridyl)-5-(difluoromethyl)pyrazole-3-carboxamide] | ≥ 80
Cc1cc(Cl)cc(C(N)=O)c1NC(=O)c1cc(C(F)(F)F)nn1-c1ncccc1Cl [Compound P25, N-(2-carbamoyl-4-chloro-6-methyl-phenyl)-2-(3-chloro-2-pyridyl)-5-(trifluoromethyl)pyrazole-3-carboxamide] | ≥ 80
Cc1cc(I)cc(C(N)=O)c1NC(=O)c1cc(Cn2nnc(-c3ccc(C(F)(F)F)cc3)n2)nn1-c1ncccc1Cl [Compound P62, N-(2-carbamoyl-4-iodo-6-methyl-phenyl)-2-(3-chloro-2-pyridyl)-5-[[5-[4-(trifluoromethyl)phenyl]tetrazol-2-yl]methyl]pyrazole-3-carboxamide] | ≥ 80
Cc1cc(C#N)cc(C(N)=O)c1NC(=O)c1cc(C(F)F)nn1-c1ncccc1Cl [Compound P28, N-(2-carbamoyl-4-cyano-6-methyl-phenyl)-2-(3-chloro-2-pyridyl)-5-(difluoromethyl)pyrazole-3-carboxamide] | ≥ 80
Cc1cc(Cl)cc(C(N)=O)c1NC(=O)c1cc(OC(F)F)nn1-c1ncccc1Cl [Compound P21, N-(2-carbamoyl-4-chloro-6-methyl-phenyl)-2-(3-chloro-2-pyridyl)-5-(difluoromethoxy)pyrazole-3-carboxamide] | ≥ 80
NC(=O)c1cc(Cl)cc(Br)c1NC(=O)c1cc(Cn2nnc(-c3ccc(C(F)(F)F)cc3)n2)nn1-c1ncccc1Cl [Compound P57, N-(2-bromo-6-carbamoyl-4-chloro-phenyl)-2-(3-chloro-2-pyridyl)-5-[[5-[4-(trifluoromethyl)phenyl]tetrazol-2-yl]methyl]pyrazole-3-carboxamide] | ≥ 80
Cc1cc(I)cc(C(N)=O)c1NC(=O)c1cc(C(F)(F)F)nn1-c1ncccc1Cl [Compound P27, N-(2-carbamoyl-4-iodo-6-methyl-phenyl)-2-(3-chloro-2-pyridyl)-5-(trifluoromethyl)pyrazole-3-carboxamide] | ≥ 80
Cc1cc(C#N)cc(C(N)=O)c1NC(=O)c1cc(Br)nn1-c1ncccc1Cl [Compound P30, 5-bromo-N-(2-carbamoyl-4-cyano-6-methyl-phenyl)-2-(3-chloro-2-pyridyl) pyrazole-3-carboxamide] | ≥ 80
Cc1cc(C#N)cc(C(N)=O)c1NC(=O)c1cc(OCC(F)(F)F)nn1-c1ncccc1Cl [Compound P32, N-(2-carbamoyl-4-cyano-6-methyl-phenyl)-2-(3-chloro-2-pyridyl)-5-(2,2,2-trifluoroethoxy)pyrazole-3-carboxamide] | ≥ 80
Cc1cc(Cl)cc(C(N)=O)c1NC(=O)c1cc(Br)nn1-c1ncccc1Cl [Compound P24, 5-bromo-N-(2-carbamoyl-4-chloro-6-methyl-phenyl)-2-(3-chloro-2-pyridyl)pyrazole-3-carboxamide] | ≥ 80
Cc1cc(Cl)cc(C(N)=O)c1NC(=O)c1cc(Cn2nnnc2-c2ccc(C(F)(F)F)cc2)nn1-c1ncccc1Cl [Compound P15, N-(2-carbamoyl-4-chloro-6-methyl-phenyl)-2-(3-chloro-2-pyridyl)-5-[[5-[4-(trifluoromethyl)phenyl]tetrazol-1-yl]methyl]pyrazole-3-carboxamide] | ≥ 80
Cc1cc(Cl)cc(C(N)=O)c1NC(=O)c1cc(Cn2cc(C(F)(F)F)nn2)nn1-c1ncccc1Cl [Compound P20, N-(2-carbamoyl-4-chloro-6-methyl-phenyl)-2-(3-chloro-2-pyridyl)-5-[[4-(trifluoromethyl)triazol-1-yl]methyl] pyrazole-3-carboxamide] | ≥ 80
COc1cc(C(=O)Nc2c(C)cc(I)cc2C(N)=O)n(-c2ncccc2Cl)n1 [Compound P10, N-(2-carbamoyl-4-iodo-6-methyl-phenyl)-2-(3-chloro-2-pyridyl)-5-methoxy-pyrazole-3-carboxamide] | ≥ 80
Cc1cc(Cl)cc(C(N)=O)c1NC(=O)c1cc(Cn2ncc(C(F)(F)F)n2)nn1-c1ncccc1Cl [Compound P19, N-(2-carbamoyl-4-chloro-6-methyl-phenyl)-2-(3-chloro-2-pyridyl)-5-[[4-(trifluoromethyl)triazol-2-yl]methyl]pyrazole-3-carboxamide] | ≥ 80

system: Plutella xylostella (Diamond back moth) ryanodine receptor, containing the G4946E resistance mutation; assay: In vitro calcium fluorescence assay (Fluo-8 NW, FDSS) in human embryonic kidney cells expressing the ryanodine receptor; assay type: cell-based; settings: table; EC50 (compound)/EC50 (cyantraniliprole); G4946E RyR in HEK cells
Protocol: Human embryonic kidney cells expressing the Plutella xylostella (Diamond back moth) ryanodine receptor, containing the G4946E resistance mutation, are loaded with Fluo-8 No Wash (NW) calcium-sensitive dye which responds by fluorescence to a change in intracellular calcium (e.g. stimulated by activation of ryanodine receptor). Test compounds are added in 10 rates to a 384-well plate containing dye-loaded cells and the fluorescent signal is measured using the Hamamatsu FDSS (Functional Drug Screening system). Dose-response curves are plotted to estimate the EC50. EC50 are normalized against an in-assay reference standard (cyantraniliprole) to address inter-assay variability. The ratio for a given compound is then obtained by the following formula:
REC50=EC50 (compound)/EC50 (cyantraniliprole).

SMILES | REC50 (Compound of the invention)
Cc1cc(Cl)cc(C(N)=O)c1NC(=O)c1cc(OCC(F)(F)C(F)(F)F)nn1-c1ncccc1Cl [Compound P8, N-(2-carbamoyl-4-chloro-6-methyl-phenyl)-2-(3-chloro-2-pyridyl)-5-(2,2,3,3,3-pentafluoropropoxy)pyrazole-3-carboxamide] | 0.14
Cc1cc(Cl)cc(C(N)=O)c1NC(=O)c1cc(C(F)(F)F)nn1-c1ncccc1Cl [Compound P25, N-(2-carbamoyl-4-chloro-6-methyl-phenyl)-2-(3-chloro-2-pyridyl)-5-(trifluoromethyl)pyrazole-3-carboxamide] | 0.18
Cc1cc(Cl)cc(C(N)=O)c1NC(=O)c1cc(OC(F)F)nn1-c1ncccc1Cl [Compound P21, N-(2-carbamoyl-4-chloro-6-methyl-phenyl)-2-(3-chloro-2-pyridyl)-5-(difluoromethoxy)pyrazole-3-carboxamide] | 0.25
Cc1cc(I)cc(C(N)=O)c1NC(=O)c1cc(C(F)(F)F)nn1-c1ncccc1Cl [Compound P27, N-(2-carbamoyl-4-iodo-6-methyl-phenyl)-2-(3-chloro-2-pyridyl)-5-(trifluoromethyl)pyrazole-3-carboxamide] | 0.18
Cc1cc(C#N)cc(C(N)=O)c1NC(=O)c1cc(Br)nn1-c1ncccc1Cl [Compound P30, 5-bromo-N-(2-carbamoyl-4-cyano-6-methyl-phenyl)-2-(3-chloro-2-pyridyl) pyrazole-3-carboxamide] | 0.39
Cc1cc(Cl)cc(C(N)=O)c1NC(=O)c1cc(Br)nn1-c1ncccc1Cl [Compound P24, 5-bromo-N-(2-carbamoyl-4-chloro-6-methyl-phenyl)-2-(3-chloro-2-pyridyl)pyrazole-3-carboxamide] | 0.18

same assay, conditions: table; secondary amide analogue; EC50 (compound)/EC50 (cyantraniliprole); G4946E RyR in HEK cells

SMILES | REC50 (Comparative compound)
Cc1cc(Cl)cc(C(=O)NC(C)C)c1NC(=O)c1cc(COCc2ccc(Cl)cc2)nn1-c1ncccc1Cl | 1.07
CNC(=O)c1cc(I)cc(F)c1NC(=O)c1cc(C(F)(F)F)nn1-c1ncccc1Cl | 3.99
CNC(=O)c1cc(C#N)cc(C)c1NC(=O)c1cc(C(F)(F)F)nn1-c1ncccc1Cl | 3.65
COc1cc(C(=O)Nc2c(C)cc(Cl)cc2C(=O)NC(C)C)n(-c2ncccc2Cl)n1 | 2.57
CNC(=O)c1cc(Cl)cc(C)c1NC(=O)c1cc(OCC(F)(F)F)nn1-c1ncccc1Cl | 1.29
CCc1cc(C(=O)Nc2c(C)cc(Cl)cc2C(=O)NC)n(-c2ncccc2Cl)n1 | 1.41
CNC(=O)c1cc(Cl)cc(C)c1NC(=O)c1cc(C2CC2)nn1-c1ncccc1Cl | 1.15
CNC(=O)c1cc(Cl)cc(Cl)c1NC(=O)c1cc(Br)nn1-c1ncc(Cl)cc1Cl | 0.47
Cc1cc(I)cc(C(=O)NC(C)C)c1NC(=O)c1cc(C(F)(F)F)nn1-c1ncccc1Cl | 3.13
CNC(=O)c1cc(C#N)cc(C)c1NC(=O)c1cc(Br)nn1-c1ncccc1Cl [Cyantraniliprole, cyantraniliprole, reference compound] | 1.00
CNC(=O)c1cc(I)cc(C)c1NC(=O)c1cc(Br)nn1-c1ncccc1Cl | 0.76
CNC(=O)c1cc(Br)cc(Br)c1NC(=O)c1cc(C(F)(F)F)nn1-c1ncccc1Cl | 0.98
CNC(=O)c1cc(Cl)cc(C)c1NC(=O)c1cc(C(F)(F)F)nn1-c1ncccc1Cl | 1.48
CC(NC(=O)c1cc(Cl)cc(Br)c1NC(=O)c1cc(Br)nn1-c1ncccc1Cl)C1CC1 (stereo not drawn) [Cyclaniliprole, cyclaniliprole, reference compound] | 4.70
CNC(=O)c1cc(Br)cc(C)c1NC(=O)c1cc(OC)nn1-c1ncccc1Cl | 1.39
CNC(=O)c1cc(Cl)cc(C)c1NC(=O)c1cc(OC(F)F)nn1-c1ncccc1Cl | 0.58
CNC(=O)c1cc(C#N)cc(C)c1NC(=O)c1cc(Cn2nnc(-c3ccc(C(F)(F)F)cc3)n2)nn1-c1ncccc1Cl | 2.41
CNC(=O)c1cc(Cl)cc(Cl)c1NC(=O)c1cc(OC)nn1-c1ncccc1Cl | 1.20
Cc1cc(Br)cc(C(=O)NC(C)C)c1NC(=O)c1cc(C(F)(F)F)nn1-c1ncccc1Cl | 8.84
CNC(=O)c1cc(Br)cc(Cl)c1NC(=O)c1cc(OC)nn1-c1ncccc1Cl | 1.32
CNC(=O)c1cc(Cl)cc(C)c1NC(=O)c1cc(OCC(F)(F)C(F)(F)F)nn1-c1ncccc1Cl | 1.85
